Test results from patent publication US12486280B2, “CDK inhibitors and uses thereof” (California Institute of Technology, priority 2018, dated 2025).
Like-named read-outs stand apart in the source and are kept apart here.

Experiments:
[1] = system: drug-sensitive cell lines of Table 2 (EFM-19, MDA-MB-453, T-47D, ZR-75-1, NCI-H441, OVTOKO, NCI-H1838); test: Cell Line Growth Retardation Assay, sensitive cohort; format: cell-based, human; conditions: for Ther Window: average IC50 drug-resistant group divided by average IC50 drug-sensitive group; for IC50: geometric mean over sensitive cohort, 6 days growth, read-out: AvgSensIC50
Protocol: (§1) Cells were seeded at densities of 1,000-5,000 cells per well in 48-well tissue culture plates. After a 24 hours rest period, cells were treated with compound at 10 μM, 2 μM, 0.4 μM, 0.08 μM, 0.016 μM, and 0.0032 μM. A group of cells were treated with the vehicle in which the compound was prepared and served as a control. The cells were grown in the presence of compounds for 6 days and were counted on day 0 and day 6. A11 cell counting was performed using a Synentec Cellavista plate imager. […] Growth inhibition was calculated as a ratio of cell population doublings in the presence of compound versus the absence of compound. […] IC50 values for each compound (see Table 3; reported in μM) were calculated by fitting curves to data points from each dose-response assay using the Proc NLIN function in SAS for Windows version 9.2 (SAS Institute, Inc.).
(§2) These sensitive and resistant cohorts were interrogated for response to each compound, and IC50s were calculated for each cell line using the same technique described above. Average IC50s for the sensitive and resistant cohorts were calculated as geometric means of the group. “Therapeutic Window” for each compound was calculated by dividing the average IC50 for the drug-resistant group by the average IC50 for the drug-sensitive group.

[2] = system: drug-resistant cell lines of Table 2 (NCI-H1437, OV207, HCC1806, NCI-H2172); test: Cell Line Growth Retardation Assay, resistant cohort; format: cell-based, human; conditions: geometric mean over resistant cohort, 6 days growth, read-out: AvgResIC50
Protocol: as §1, §2

CDK4 = CDK4 (Homo sapiens (Human), UniProt P11802); test: Cdk4 and 6 Enzymatic Inhibition Assay (radiometric 33PanQinase, Ki determination); format: biochemical
Protocol: (§3) 10 distinct concentrations were prepared, with a dilution endpoint of 6×10^−9 M in 100% DMSO. 100% DMSO was used as a control. 10 μL from each of the serial dilutions were aliquoted into separate wells of a 96-well plate and 90 μL of water were added to each of those wells. The plate was shaken thoroughly, and 5 μL from each of the plate's wells were transferred into wells of the assay plate. The final volume of wells in the assay plate was 50 μL. A11 compounds were tested at 10 assay concentrations in the range from 2×10^−6 M to 6×10^−11 M. The final DMSO concentration in the wells of the assay plate was 1% in all cases.
(§4) A radiometric protein kinase assay (33PanQinase® Activity Assay) was used for measuring the kinase activity of six protein kinases. A11 kinase assays were performed in 96-well FlashPlates™ from PerkinElmer (Boston, MA, USA). The assay for all protein kinases contained 70 mM HEPES-NaOH pH 7.5, 3 mM MgCl2, 3 mM MnCl2, 3 μM Na-orthovanadate, 1.2 mM DTT, 50 μg/mL PEG20000, ATP [γ-33P]-ATP (approx. 9×1005 cpm per well), protein kinase and substrate. The reaction cocktails were incubated at 30° C. for 60 minutes. The reaction was stopped with 50 μL of 2% (v/v) H3PO4, and plates were aspirated and washed two times with 200 μL 0.9% (w/v) NaCl. Incorporation of ^33Pi was determined with a microplate scintillation counter (Microbeta, Wallac).

CDK6 = CDK6 (Homo sapiens (Human), UniProt Q00534); test: as above; format: biochemical
Protocol: as §3, §4

Chain of CDK4 (P11802 whole entry): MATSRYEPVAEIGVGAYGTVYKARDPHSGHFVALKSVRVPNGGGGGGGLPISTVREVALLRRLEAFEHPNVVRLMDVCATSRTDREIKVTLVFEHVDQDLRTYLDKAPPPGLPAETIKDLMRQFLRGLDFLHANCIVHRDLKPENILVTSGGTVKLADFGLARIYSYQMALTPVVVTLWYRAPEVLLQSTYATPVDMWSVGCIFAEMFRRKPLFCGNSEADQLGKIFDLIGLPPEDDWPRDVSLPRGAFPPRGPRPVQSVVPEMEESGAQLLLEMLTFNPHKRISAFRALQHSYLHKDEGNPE
Chain of CDK4 (P24385 whole entry partner): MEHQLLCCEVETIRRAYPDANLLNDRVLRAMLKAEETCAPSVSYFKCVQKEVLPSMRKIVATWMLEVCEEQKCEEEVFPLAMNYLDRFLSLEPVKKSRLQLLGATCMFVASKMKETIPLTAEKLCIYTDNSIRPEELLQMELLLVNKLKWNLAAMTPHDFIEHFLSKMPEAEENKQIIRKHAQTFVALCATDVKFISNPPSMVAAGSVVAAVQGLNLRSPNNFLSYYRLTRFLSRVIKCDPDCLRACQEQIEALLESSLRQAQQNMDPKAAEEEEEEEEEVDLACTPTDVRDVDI
Chain of CDK6 (Q00534 whole entry): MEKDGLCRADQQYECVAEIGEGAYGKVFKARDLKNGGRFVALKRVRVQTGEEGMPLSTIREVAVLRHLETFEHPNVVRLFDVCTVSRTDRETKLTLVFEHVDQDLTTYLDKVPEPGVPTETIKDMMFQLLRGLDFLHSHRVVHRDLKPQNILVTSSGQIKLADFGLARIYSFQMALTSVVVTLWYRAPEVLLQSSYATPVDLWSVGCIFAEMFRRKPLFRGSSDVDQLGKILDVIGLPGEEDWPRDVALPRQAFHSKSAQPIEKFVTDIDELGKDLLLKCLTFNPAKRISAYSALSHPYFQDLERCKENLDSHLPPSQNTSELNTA
Chain of CDK6 (P24385 whole entry partner): as the sequence (P24385 whole entry partner) above

SMILES | Ther Window [1] | IC50 [1] | IC50 [2] | Ki (CDK4) | Ki (CDK6) | IC50 ([1]; Homo sapiens, […]) | IC50 ([2]; Homo sapiens, […])
Cc1nc2c(F)cc(-c3nc(Nc4ccc(CN5CCOC(C)(CC(C)N(C)C)C5)cn4)ncc3F)cc2n1C(C)C (centres unmarked) [Compound A24] | 3.02 | 40 nM | 130 nM | 0.04 nM | 0.16 nM |  | 
Cc1nc2c(F)cc(-c3nc(Nc4ccc(CN5CCOC(C)(CC(C)N(C)C)C5)cn4)ncc3F)cc2n1C(C)C (centres unmarked) [Compound A25] | 6.52 | 120 nM | 790 nM | 0.8 nM | 3.47 nM |  | 
Cc1nc2c(F)cc(-c3nc(Nc4ccc(CN5CCO[C@@](C)(C[C@@H](C)O)C5)cn4)ncc3F)cc2n1C(C)C (single isomer, unassigned) [Compound A52] | 2.82 |  |  | 3.55 nM | 15.4 nM | 350 nM | 1000 nM
Cc1nc2c(F)cc(-c3nc(Nc4ccc(CN5CCO[C@](C)(CC(=O)N6CC(F)(F)C6)C5)cn4)ncc3F)cc2n1C(C)C [Compound A56, (R)-1-(3,3-difluoroazetidin-1-yl)-2-(4-((6-((5-fluoro-4-(4-fluoro-1-isopropyl-2-methyl-1H-benzo[d]imidazol-6-yl)pyrimidin-2-yl)amino)pyridin-3-yl)methyl)-2-methylmorpholin-2-yl)ethan-1-one] | 3.76 |  |  | 2.4 nM | 14.8 nM | 260 nM | 1000 nM
CCN(CC)C(=O)C[C@]1(C)CN(Cc2ccc(Nc3ncc(F)c(-c4cc(F)c5nc(C)n(C(C)C)c5c4)n3)nc2)CCO1 [Compound A57, (R)-2-(4-((6-((5-fluoro-4-(4-fluoro-1-isopropyl-2-methyl-1H-benzo[d]imidazol-6-yl)pyrimidin-2-yl)amino)pyridin-3-yl)methyl)-2-methylmorpholin-2-yl)-N,N-diethylacetamide] | 2.56 |  |  | 3.91 nM | 24 nM | 390 nM | 1000 nM
Cc1nc2c(F)cc(-c3nc(Nc4ccc(CN5CCOC(C)(CCN(C)C)C5)cn4)ncc3F)cc2n1C(C)C (centres unmarked) [Compound A4] | 5.80 |  |  | 1.16 nM | 5.09 nM | 160 nM | 960 nM
Cc1nc2c(F)cc(-c3nc(Nc4ccc(CN5CCO[C@](C)(CC(=O)N6CCC6)C5)cn4)ncc3F)cc2n1C(C)C [Compound A58, (R)-1-(azetidin-1-yl)-2-(4-((6-((5-fluoro-4-(4-fluoro-1-isopropyl-2-methyl-1H-benzo[d]imidazol-6-yl)pyrimidin-2-yl)amino)pyridin-3-yl)methyl)-2-methylmorpholin-2-yl)ethan-1-one] | 2.94 |  |  | 2.64 nM | 19.8 nM | 340 nM | 1000 nM
Cc1nc2c(F)cc(-c3nc(Nc4ccc(CN5CCOC(C)(C)C5)cn4)ncc3F)cc2n1C(C)C [Compound A48] | 1.56 |  |  | 1.77 nM | 1.08 nM | 640 nM | 1000 nM
Cc1nc2c(F)cc(-c3nc(Nc4ccc(CN5CCO[C@@]6(CCN(C(=O)OC(C)(C)C)C6)C5)cn4)ncc3F)cc2n1C(C)C [Compound A41, tert-butyl (S)-9-((6-((5-fluoro-4-(4-fluoro-1-isopropyl-2-methyl-1H-benzo[d]imidazol-6-yl)pyrimidin-2-yl)amino)pyridin-3-yl)methyl)-6-oxa-2,9-diazaspiro[4.5]decane-2-carboxylate] |  |  |  | 11.3 nM | 73.9 nM |  | 
Cc1nc2c(F)cc(-c3nc(Nc4ccc(CN5CC6(CCC6)C5)cn4)ncc3F)cc2n1C(C)C [Compound A63, N-(5-((2-azaspiro[3.3]heptan-2-yl)methyl)pyridin-2-yl)-5-fluoro-4-(4-fluoro-1-isopropyl-2-methyl-1H-benzo[d]imidazol-6-yl)pyrimidin-2-amine] | 5.03 |  |  | 0.75 nM | 3.14 nM | 100 nM | 500 nM
Cc1nc2c(F)cc(-c3nc(Nc4ccc(CN5CCO[C@@](C)(C[C@H](C)O)C5)cn4)ncc3F)cc2n1C(C)C (single isomer, unassigned) [Compound A53] | 4.85 |  |  | 2.49 nM | 11.9 nM | 210 nM | 1000 nM
CCN1CCN(Cc2ccc(Nc3ncc(F)c(-c4cc(F)c5nc(C)n(C(C)C)c5c4)n3)nc2)CC1 [Abemaciclib FB, Abemaciclib, reference compound] | 6.73 | 100 nM | 670 nM |  |  |  | 
CCCC1(C)CN(Cc2ccc(Nc3ncc(F)c(-c4cc(F)c5nc(C)n(C(C)C)c5c4)n3)nc2)CCO1 (centres unmarked) [Compound A46] | 1.26 |  |  | 5.08 nM | 1.95 nM | 790 nM | 1000 nM
CCOCC[C@]1(C)CN(Cc2ccc(Nc3ncc(F)c(-c4cc(F)c5nc(C)n(C(C)C)c5c4)n3)nc2)CCO1 [Compound A54] | 1.00 |  |  | 26.9 nM | 108 nM | 1000 nM | 1000 nM
Cc1nc2c(F)cc(-c3nc(Nc4ccc(CN5CCO[C@@]6(CCNC6)C5)cn4)ncc3F)cc2n1C(C)C [Compound A34, (R)—N-(5-((6-oxa-2,9-diazaspiro[4.5]decan-9-yl)methyl)pyridin-2-yl)-5-fluoro-4-(4-fluoro-1-isopropyl-2-methyl-1H-benzo[d]imidazol-6-yl)pyrimidin-2-amine] | 5.02 |  |  |  |  | 200 nM | 1000 nM
Cc1nc2c(F)cc(-c3nc(Nc4ccc(CN5CCOC(C)(CO)C5)cn4)ncc3F)cc2n1C(C)C (centres unmarked) [Compound A51] | 1.62 |  |  | 8 nM | 38.4 nM | 620 nM | 1000 nM
Cc1nc2c(F)cc(-c3nc(Nc4ccc(CN5CC6(C5)CC(F)(F)C6)cn4)ncc3F)cc2n1C(C)C [Compound A64, N-(5-((6,6-difluoro-2-azaspiro[3.3]heptan-2-yl)methyl)pyridin-2-yl)-5-fluoro-4-(4-fluoro-1-isopropyl-2-methyl-1H-benzo[d]imidazol-6-yl)pyrimidin-2-amine] | 4.87 |  |  | 0.9 nM | 4.53 nM | 150 nM | 730 nM
Cc1nc2c(F)cc(-c3nc(Nc4ccc(CN5CCO[C@]6(CCNC6)C5)cn4)ncc3F)cc2n1C(C)C [Compound A35] | 5.36 |  |  |  |  | 190 nM | 1000 nM
C=CC[C@@]1(C)CN(Cc2ccc(Nc3ncc(F)c(-c4cc(F)c5nc(C)n(C(C)C)c5c4)n3)nc2)CCO1 [Compound A45, (S)—N-(5-((2-allyl-2-methylmorpholino)methyl)pyridin-2-yl)-5-fluoro-4-(4-fluoro-1-isopropyl-2-methyl-1H-benzo[d]imidazol-6-yl)pyrimidin-2-amine] | 1.29 |  |  | 3.43 nM | 1.43 nM | 780 nM | 1000 nM
Cc1nc2c(F)cc(-c3nc(Nc4ccc(CN5CCOC6(CCOC6)C5)cn4)ncc3F)cc2n1C(C)C (centres unmarked) [Compound A40] | 2.18 |  |  | 2.27 nM | 7.99 nM | 450 nM | 980 nM
Cc1nc2c(F)cc(-c3nc(Nc4ccc(CN5CCO[C@]6(CCN(C(=O)OC(C)(C)C)C6)C5)cn4)ncc3F)cc2n1C(C)C [Compound A42] |  |  |  | 6.47 nM | 34.9 nM |  | 
Cc1nc2c(F)cc(-c3nc(Nc4ccc(CN5CCC56COC6)cn4)ncc3F)cc2n1C(C)C [Compound A61, N-(5-((6-oxa-1-azaspiro[3.3]heptan-1-yl)methyl)pyridin-2-yl)-5-fluoro-4-(4-fluoro-1-isopropyl-2-methyl-1H-benzo[d]imidazol-6-yl)pyrimidin-2-amine] | 4.27 |  |  | 1.53 nM | 9.53 nM | 220 nM | 940 nM
